Source: patent publication US10577363B2, “Substituted piperidine compounds” (EPIZYME, INC., priority 2014, dated 2020)
Each block holds one compound with its values, some of them ahead of it.

How the values were obtained:
[1] = system: esophageal, liver and breast cancer cell lines; settings: several esophageal, dose-dependent; cited from earlier work
SMYD3 [2] = target: T1, SMYD3 (Homo sapiens (Human), UniProt Q9H7B4); test: SMYD3 cell assay (Trimethyl-MEKK2 In-Cell Western in 293T/17 cells); type: cell-based
Procedure, shortened: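 In-Cell Western readout: methanol-fixed cells stained for trimethyl-MEKK2 and flag tag, ratio per well normalized to DMSO and background controls.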

SMYD3 [3] = target: T1, SMYD3; test: SMYD3 biochemical assay (SPA, 3H-SAM methylation of MEKK2 protein substrate)
Procedure, shortened: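 Methylation of N-terminally GST-tagged MEKK2 by untagged full-length human SMYD3, using 3H-SAM, in pH 8.0 Tris buffer with TCEP, BSG and Tween 20; enzyme and compound sat 30 min at room temperature before substrate addition. Stopped with 100 uM (final) cold SAM; incorporation read by scintillation proximity as dpm/cpm.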

[4] = read-out: SMYD3 Cell IC50 (μM)*
[5] = read-out: SMYD3 Biochem IC50 (μM)*
[6] = 293T/17 cells, read-out: SMYD3 Cell IC50 (μM)*
[7] = average of n = 1 to n = 50, read-out: SMYD3 Cell IC50
[8] = average of n = 1 to n = 50, read-out: SMYD3 Biochem IC50
[9] = Table 2A, read-out: SMYD3 Cell IC50
[10] = Table 2A, read-out: SMYD3 Biochem IC50

T1 sequence (Q9H7B4 whole entry): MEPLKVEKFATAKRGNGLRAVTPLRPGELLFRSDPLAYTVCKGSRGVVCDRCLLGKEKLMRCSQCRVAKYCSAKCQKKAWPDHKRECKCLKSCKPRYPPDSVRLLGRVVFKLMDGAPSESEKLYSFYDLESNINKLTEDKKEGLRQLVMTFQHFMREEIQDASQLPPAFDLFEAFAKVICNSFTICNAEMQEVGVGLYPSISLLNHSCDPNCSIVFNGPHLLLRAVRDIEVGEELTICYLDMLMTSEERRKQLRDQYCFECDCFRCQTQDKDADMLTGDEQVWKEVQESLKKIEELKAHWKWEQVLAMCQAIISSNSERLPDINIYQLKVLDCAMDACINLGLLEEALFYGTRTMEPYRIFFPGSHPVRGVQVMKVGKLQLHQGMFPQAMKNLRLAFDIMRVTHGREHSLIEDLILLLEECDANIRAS

Structure (SMILES): Cc1cn(CCN2CCN(c3ccccc3-c3cc(C#N)cc(C(=O)NCCCN4CCCC4)c3)CC2)c2ccccc12 [LLY-507]
inhibition of proliferation of cancer cell lines [1]: inhibited the proliferation

Structure (SMILES): COCCNc1ccc(S(=O)(=O)N2CC[C@@H](NC(=O)c3cc(C4CC4)on3)C[C@H]2C)cn1 [compound 457, 5-cyclopropyl-N-((2R,4R)-1-((6-((2-methoxyethyl)amino)pyridin-3-yl)sulfonyl)-2-methylpiperidin-4-yl)isoxazole-3-carboxamide]
IC50 (SMYD3 [2]; [6]): > 10 µM
IC50 (SMYD3 [3]; [5]): > 10 µM

Structure (SMILES): CC1CN(S(=O)(=O)N2[C@@H]3CC[C@H]2C[C@@H](NC(=O)c2cc(C4CC4)on2)C3)CC(C)N1C (stereo partly drawn) [compound 702, 5-cyclopropyl-N-((1R,3r,5S)-8-((3,4,5-trimethylpiperazin-1-yl)sulfonyl)-8-azabicyclo[3.2.1]octan-3-yl)isoxazole-3-carboxamide]
IC50 (SMYD3 [2]; [7]): 1.24 µM
IC50 (SMYD3 [3]; [8]): 0.215 µM

Structure (SMILES): CC(C)CNC1CCN(S(=O)(=O)N2CC[C@H](NC(=O)c3cc(C4CC4)on3)C[C@@H]2C)CC1 [compound 843, 5-cyclopropyl-N-((2S,4S)-1-((4-(isobutylamino)piperidin-1-yl)sulfonyl)-2-methylpiperidin-4-yl)isoxazole-3-carboxamide]
IC50 (SMYD3 [2]; read-out: SMYD3 Cell IC50*): 0.0777 µM
IC50 (SMYD3 [3]; read-out: SMYD3 Biochem IC50*): 0.00511 µM

Structure (SMILES): O=C(N[C@H]1C[C@H]2CC[C@@H](C1)N2S(=O)(=O)N1CC2CC1CN2)c1cc(C2CC2)on1 [compound 840, N-((1R,3r,5S)-8-((2,5-diazabicyclo[2.2.1]heptan-2-yl)sulfonyl)-8-azabicyclo[3.2.1]octan-3-yl)-5-cyclopropylisoxazole-3-carboxamide]
IC50 (SMYD3 [2]; read-out: SMYD3 Cell IC50*): 0.056 µM
IC50 (SMYD3 [3]; read-out: SMYD3 Biochem IC50*): 0.00501 µM

Structure (SMILES): CN(C1CCNCC1)S(=O)(=O)N1[C@@H]2CC[C@H]1C[C@H](NC(=O)c1cc(C3CC3)on1)C2 [compound 724, 5-cyclopropyl-N-((1R,3s,5S)-8-(N-methyl-N-(piperidin-4-yl)sulfamoyl)-8-azabicyclo[3.2.1]octan-3-yl)isoxazole-3-carboxamide]
IC50 (SMYD3 [2]; [7]): 2.44 µM
IC50 (SMYD3 [3]; [8]): 0.333 µM

Structure (SMILES): C[C@H]1C[C@@H](NC(=O)c2cc(C3CC3)on2)CCN1S(=O)(=O)N1C2CCC1CNC2 [compound 615, N-((2S,4S)-1-((3,8-diazabicyclo[3.2.1]octan-8-yl)sulfonyl)-2-methylpiperidin-4-yl)-5-cyclopropylisoxazole-3-carboxamide]
IC50 (SMYD3 [2]; [9]): 0.233 µM
IC50 (SMYD3 [3]; [10]): 0.0217 µM

Structure (SMILES): C[C@H]1C[C@@H](NC(=O)c2cc(C3CC3)on2)CCN1S(=O)(=O)CC[C@H]1CCNC1 [compound 858, 5-cyclopropyl-N-((2S,4S)-2-methyl-1-((2-((R)-pyrrolidin-3-yl)ethyl)sulfonyl)piperidin-4-yl)isoxazole-3-carboxamide]
IC50 (SMYD3 [2]; read-out: SMYD3 Cell IC50*): 0.172 µM
IC50 (SMYD3 [3]; read-out: SMYD3 Biochem IC50*): 0.0072 µM

Structure (SMILES): COCCCN(C)C1CCN(S(=O)(=O)N2[C@@H]3CC[C@H]2C[C@@H](NC(=O)c2cc(C4CC4)on2)C3)CC1 [compound 899, 5-cyclopropyl-N-((1R,3r,5S)-8-((4-((3-methoxypropyl)(methyl)amino)piperidin-1-yl)sulfonyl)-8-azabicyclo[3.2.1]octan-3-yl)isoxazole-3-carboxamide]
IC50 (SMYD3 [2]; read-out: SMYD3 Cell IC50*): 0.168 µM
IC50 (SMYD3 [3]; read-out: SMYD3 Biochem IC50*): 0.0145 µM

Structure (SMILES): C[C@H]1C[C@H](NC(=O)c2cc(C3CC3)on2)CCN1C(=O)CC(CN)Cc1ccccc1 (stereo partly drawn) [compound 271, N-((2S,4R)-1-(4-amino-3-benzylbutanoyl)-2-methylpiperidin-4-yl)-5-cyclopropylisoxazole-3-carboxamide]
IC50 (SMYD3 [2]; [6]): > 40 µM
IC50 (SMYD3 [3]; [5]): > 10 µM

Structure (SMILES): CCN1CCN(S(=O)(=O)N2[C@@H]3CCC[C@@H]2CC(NC(=O)c2cc(C4CC4)on2)C3)CC1 (stereo partly drawn) [compound 765, 5-cyclopropyl-N-((1R,5R)-9-((4-ethylpiperazin-1-yl)sulfonyl)-9-azabicyclo[3.3.1]nonan-3-yl)isoxazole-3-carboxamide]
IC50 (SMYD3 [2]; [7]): 2.42 µM
IC50 (SMYD3 [3]; [8]): 0.836 µM

Structure (SMILES): CN(CCCO)C1CCN(S(=O)(=O)N2[C@@H]3CC[C@H]2C[C@@H](NC(=O)c2cc(C4CC4)on2)C3)CC1 [compound 834, 5-cyclopropyl-N-((1R,3r,5S)-8-((4-((3-hydroxypropyl)(methyl)amino)piperidin-1-yl)sulfonyl)-8-azabicyclo[3.2.1]octan-3-yl)isoxazole-3-carboxamide]
IC50 (SMYD3 [2]; read-out: SMYD3 Cell IC50*): 0.0487 µM
IC50 (SMYD3 [3]; read-out: SMYD3 Biochem IC50*): 0.00457 µM

Structure (SMILES): C[C@@H]1C[C@H](NC(=O)c2cc(C3CC3)on2)CCN1C(=O)c1ccc2[nH]cnc2c1 [compound 341, N-((2R,4R)-1-(1H-benzo[d]imidazole-5-carbonyl)-2-methylpiperidin-4-yl)-5-cyclopropylisoxazole-3-carboxamide]
IC50 (SMYD3 [2]; [6]): 6.01 µM
IC50 (SMYD3 [3]; [5]): 1 µM

Structure (SMILES): O=C(N[C@H]1C[C@H]2CC[C@@H](C1)N2S(=O)(=O)N1CC2(CCN(CCc3ccccc3)CC2)C1)c1cc(C2CC2)on1 [compound 769, 5-cyclopropyl-N-((1R,3r,5S)-8-((7-phenethyl-2,7-diazaspiro[3.5]nonan-2-yl)sulfonyl)-8-azabicyclo[3.2.1]octan-3-yl)isoxazole-3-carboxamide]
IC50 (SMYD3 [2]; read-out: SMYD3 Cell IC50*): 0.0179 µM
IC50 (SMYD3 [3]; read-out: SMYD3 Biochem IC50*): 0.00076 µM

Continued, values first:

IC50 (SMYD3 [2]; [4]): > 40 µM
IC50 (SMYD3 [3]; [5]): > 10 µM
Structure (SMILES): CC1CC(NC(=O)c2cc(C3CC3)on2)CCN1C(=O)Cc1c[nH]cn1 (centres unmarked) [compound 227, N-(1-(2-(1H-imidazol-4-yl)acetyl)-2-methylpiperidin-4-yl)-5-cyclopropylisoxazole-3-carboxamide]

IC50 (SMYD3 [2]; [6]): 13.6 µM
IC50 (SMYD3 [3]; [5]): 1.36 µM
Structure (SMILES): C[C@@H](C(=O)N1CC[C@H](NC(=O)c2cc(C3CC3)on2)C[C@@H]1C)C1CCNCC1 [compound 361, 5-cyclopropyl-N-((2S,4S)-2-methyl-1-((R)-2-(piperidin-4-yl)propanoyl)piperidin-4-yl)isoxazole-3-carboxamide]

IC50 (SMYD3 [2]; [7]): 3.15 µM
IC50 (SMYD3 [3]; [8]): 0.295 µM
Structure (SMILES): CN(C1CCNCC1)S(=O)(=O)N1CC[C@@H](NC(=O)c2cc(C3CC3)on2)C[C@@H]1Cc1ccccc1 [compound 714, N-((2S,4R)-2-benzyl-1-(N-methyl-N-(piperidin-4-yl)sulfamoyl)piperidin-4-yl)-5-cyclopropylisoxazole-3-carboxamide]

IC50 (SMYD3 [2]; [7]): 0.577 µM
IC50 (SMYD3 [3]; [8]): 0.0273 µM
Structure (SMILES): C[C@H]1CN(S(=O)(=O)CCCNCc2ccccc2)[C@@H](C)C[C@H]1NC(=O)c1cc(C2CC2)on1 [compound 628, N-((2S,4R,5S)-1-((3-(benzylamino)propyl)sulfonyl)-2,5-dimethylpiperidin-4-yl)-5-cyclopropylisoxazole-3-carboxamide]

IC50 (SMYD3 [2]; read-out: SMYD3 Cell IC50*): 1.51 µM
IC50 (SMYD3 [3]; read-out: SMYD3 Biochem IC50*): 0.0527 µM
Structure (SMILES): O=C(N[C@H]1CCN(S(=O)(=O)NC2CCNCC2)[C@@H](Cc2ccccc2)C1)c1cc(C2CC2)on1 [compound 949, N-((2S,4S)-2-benzyl-1-(N-(piperidin-4-yl)sulfamoyl)piperidin-4-yl)-5-cyclopropylisoxazole-3-carboxamide]

IC50 (SMYD3 [2]; [4]): 1.44 µM
IC50 (SMYD3 [3]; [5]): 0.139 µM
Structure (SMILES): NC[C@@H](Cc1ccc(O)c(Cl)c1)C(=O)N1CCC(NC(=O)c2cc(C3CC3)on2)CC1 [compound 63, (R)-N-(1-(3-amino-2-(3-chloro-4-hydroxybenzyl)propanoyl)piperidin-4-yl)-5-cyclopropylisoxazole-3-carboxamide]

IC50 (SMYD3 [2]; [9]): 0.183 µM
IC50 (SMYD3 [3]; [10]): 0.0228 µM
Structure (SMILES): CCN1CCN(S(=O)(=O)N2CC[C@H](NC(=O)c3cc(C4CC4)on3)C[C@@H]2C)CC1 [compound 617, 5-cyclopropyl-N-((2S,4S)-1-((4-ethylpiperazin-1-yl)sulfonyl)-2-methylpiperidin-4-yl)isoxazole-3-carboxamide]

IC50 (SMYD3 [2]; [4]): 3.18 µM
IC50 (SMYD3 [3]; [5]): 0.172 µM
Structure (SMILES): C[C@H]1C[C@H](NC(=O)c2cc(C3CC3)on2)CCN1C(=O)CC1CCNCC1 [compound 56, 5-cyclopropyl-N-((2S,4R)-2-methyl-1-(2-(piperidin-4-yl)acetyl)piperidin-4-yl)isoxazole-3-carboxamide]

IC50 (SMYD3 [2]; [6]): 5.62 µM
IC50 (SMYD3 [3]; [5]): 0.135 µM
Structure (SMILES): C[C@H]1C[C@H](NC(=O)c2cc(C3CC3)on2)CCN1S(=O)(=O)c1ccc(NCCN)nc1 [compound 415, N-((2S,4R)-1-((6-((2-aminoethyl)amino)pyridin-3-yl)sulfonyl)-2-methylpiperidin-4-yl)-5-cyclopropylisoxazole-3-carboxamide]

IC50 (SMYD3 [2]; [6]): 15.2 µM
IC50 (SMYD3 [3]; [5]): 6.91 µM
Structure (SMILES): C[C@@H]1C[C@H](NC(=O)c2cc(C3CC3)on2)CCN1S(=O)(=O)N(C)C [compound 328, 5-cyclopropyl-N-((2R,4R)-1-(N,N-dimethylsulfamoyl)-2-methylpiperidin-4-yl)isoxazole-3-carboxamide]

IC50 (SMYD3 [2]; [6]): 19.6 µM
IC50 (SMYD3 [3]; [5]): 1.12 µM
Structure (SMILES): NCCCC(=O)N1CC[C@H](NC(=O)c2cc(C3CC3)on2)C[C@H]1Cc1ccccc1 [compound 335, N-((2R,4S)-1-(4-aminobutanoyl)-2-benzylpiperidin-4-yl)-5-cyclopropylisoxazole-3-carboxamide]

IC50 (SMYD3 [2]; Table 1A, IC50 values are an average of n = 1 to n = 50, read-out: SMYD3 Cell IC50): > 10 µM
IC50 (SMYD3 [3]; Table 1A, IC50 values are an average of n = 1 to n = 50, read-out: SMYD3 Biochem IC50): 3.97 µM
Structure (SMILES): C[C@@H]1C[C@@H](NC(=O)c2cc(C3CC3)on2)CCN1S(=O)(=O)c1ccc(NCCN2CCOCC2)nc1 [compound 506, 5-cyclopropyl-N-((2R,4S)-2-methyl-1-((6-((2-morpholinoethyl)amino)pyridin-3-yl)sulfonyl)piperidin-4-yl)isoxazole-3-carboxamide]

IC50 (SMYD3 [2]; [6]): 1.8 µM
IC50 (SMYD3 [3]; [5]): 0.228 µM
Structure (SMILES): NCCCS(=O)(=O)N1CC[C@H](NC(=O)c2cc(C3CC3)on2)C[C@@H]1Cc1ccccc1 [compound 424, N-((2S,4S)-1-((3-aminopropyl)sulfonyl)-2-benzylpiperidin-4-yl)-5-cyclopropylisoxazole-3-carboxamide]
